In patent US20230064254A1, “THERAPEUTIC AGENT CONTAINING FUSED PYRIMIDINE COMPOUND AS ACTIVE INGREDIENT” (TAIHO PHARMACEUTICAL CO., LTD., priority 2019, published 2023):

Assays:
HIGA mice = test: Inhibition of decrease in renal function in IgA nephropathy mouse models (HIGA mice), blood urea nitrogen; type: in vivo; settings: for blood urea nitrogen level (BUN), compared with the vehicle group: 10 mpk orally once a day for 6 weeks, FIG. 3, 10 mg/kg
Description: The present test was carried out, using HIGA mice that had been reported as mouse models of IgA nephropathy (Muso et al., Kidney International 1996 50: 1946-1957). A vehicle, a fumarate of Compound 1, or Ibrutinib (Comparative Example 1) was orally administered to 14-week-old to 16-week-old HIGA mice (Japan SLC, Inc.) once a day, continuously for 6 weeks. The control mice were not IgA nephropathy mouse models (HIGA mice), but were Balb/c mice (Japan SLC, Inc.) with the same age in weeks as described above. The vehicle was 0.5% HPMC. The daily doses were set as the following: the vehicle: 10 ml/kg, the fumarate of Compound 1: 10 mpk, and Ibrutinib: 30 mpk. […] Peripheral blood was collected from […], and the urea nitrogen level in the blood was measured. Using UREA NITROGEN (BUN) Colorimetric Detection Kit (Arbor Assays), the urea nitrogen level in the blood was measured.

mouse B cells = test: Effect of inhibiting IgG production in mouse B cells; type: cell-based; settings: CD43-negative B cells from BALB/c mouse spleen, anti-CD40 antibody and IL-4 stimulation, cultured 8 days, ELISA; FIG. 1
Description: The present test was carried out with reference to the Non-Patent literature (Castigli et al., J Allergy Clin Immunol 2007 120(4): 885-91). A CD43-negative B cell fraction was separated from the spleen collected from BALB/c mice, and was then suspended in a 10% FBS-containing RPMI1640 culture medium, to which an anti-CD40 antibody and IL-4 had been added. A fumarate of Compound 1 was serially diluted with DMSO, and was then added to a plate, at the same time as the seeding of the cells onto the plate. A 10% FBS-containing RPMI culture medium, to which neither an anti-CD40 antibody nor IL-4 had been added, was used as a control. DMSO, which was added to a plate at the same time as the seeding of the cells on the plate, was defined as a vehicle. The cells were cultured for 8 days at 37° C. in a CO2 incubator, and thereafter, a culture supernatant was recovered. Using an anti-IgG antibody ELISA kit (Thermo Fisher Scientific), the IgG concentration in the culture supernatant was measured.

[1] = tested on: Human monocytic cells THP-1; test: Inhibition of TNFα cytokine production by IgG stimulation; type: cell-based; settings: THP-1 cells on solid-phased human IgG, cultured 4 hours, ELISA; FIG. 2
Description: The present test was carried out with reference to the Non-Patent literature (Chang et al., Arthritis Res Ther 2011 13(4): R115). Human monocytic cells THP-1 suspended in a 10% FBS-containing RPMI1640 culture medium were seeded on a 96-well plate, on which human IgG had been solid-phased. A fumarate of Compound 1 was serially diluted with DMSO, and was then added to the plate, on which the cells had been seeded. The cells seeded into a well of the plate, in which IgG had not been solid-phased, were used as a control. DMSO, which was added to the plate at the same time as the seeding of the cells, was defined as a vehicle. The cells were cultured for 4 hours at 37° C. in a CO2 incubator, and thereafter, a culture supernatant was recovered. Using an anti-TNFα ELISA kit (R & D system), the concentration of TNFα in the culture supernatant was measured.

[2] = AUC comparison of fumarate of Compound 1 and Ibrutinib; type: in vivo; settings: fumarate of Compound 1 (1 mpk) compared with Ibrutinib (3 mpk)

C=CC(=O)N1CCC[C@@H](n2nc(C(=O)Nc3nc4ccccc4o3)c3c(N)ncnc32)C1 [Compound 1, (R)-1-(1-acryloylpiperidin-3-yl)-4-amino-N-(benzo[d]oxazol-2-yl)-1H-pyrazolo[3,4-d]pyrimidine-3-carboxamide]
blood urea nitrogen level (BUN), compared with the vehicle group (HIGA mice): significantly reduce the blood urea nitrogen level (BUN) | medicinal effects in HIGA mice (blood urea nitrogen level) (HIGA mice; orally once a day for 6 weeks, fumarate of Compound 1 10 mpk, Ibrutinib 30 mpk): exhibited excellent medicinal effects | IgG concentration in the culture supernatant (IgG production) (mouse B cells): inhibited IgG production in a dose-dependent manner | concentration of TNFα in the culture supernatant (TNFα production) [1]: inhibited TNFα production in a dose-dependent manner

C=CC(=O)N1CCC[C@@H](n2nc(-c3ccc(Oc4ccccc4)cc3)c3c(N)ncnc32)C1 [Ibrutinib, reference compound]
AUC values [2]: equivalent AUC values

C=CC(=O)N1CCC[C@@H](n2nc(C(=O)Nc3nc4ccccc4o3)c3c(N)ncnc32)C1 [fumarate of Compound 1, (R)-1-(1-acryloylpiperidin-3-yl)-4-amino-N-(benzo[d]oxazol-2-yl)-1H-pyrazolo[3,4-d]pyrimidine-3-carboxamide]
blood urea nitrogen level (BUN), compared with the vehicle group (HIGA mice): inhibits an increase in the blood urea nitrogen level | blood urea nitrogen level (BUN), compared with Comparative Example 1 (Ibrutinib) (HIGA mice; fumarate of Compound 1 10 mpk vs Ibrutinib 30 mpk, orally once a day for 6 weeks, FIG. 3): significantly reduces the blood urea nitrogen level | AUC values [2]: equivalent AUC values
